pIC50: −log10 of the molar value.
Biological target: Human immunodeficiency virus type 1 reverse transcriptase (Human immunodeficiency virus 1, UniProt Q72547)
Test: Inhibitory activity against HIV-1 reverse transcriptase

Row | pIC50 | Compound
1 | 8.22 | CC(C)c1c(Cc2ccccc2)n(COCc2ccccc2)c(=O)[nH]c1=O
2 | 4.77 | Cc1c(Sc2ccccc2)n(COCCO)c(=O)[nH]c1=O [HEPT]
